Columns and labels:
potassium channel [1] = experiment: Potassium channel activating effect (86Rb efflux from rat thoracic aortae); assay type: cell-based, male Wistar rats; settings: 10^-4 M, 8 minutes, percent of efflux before application
Method: Male Wistar rats (weighing 250-350 g) were dehematized to death, and thoracic aortae were rapidly isolated. The aorta was opened along the longitudinal axis to prepare a flat sheet. The preparation was loaded with ^86 Rb in the Krebs-Ringer solution which contained ^86 Rb in the concentration of 10 μCi/ml and was gassed with 95% 02 5% CO2 at 37° C. for 2 hours. The preparation was then transferred to a Krebs-Ringer solution not containing ^86 Rb, and washed to remove excess radioactivity for 18 minutes by refreshing the solution every 2 minutes. Finally the preparation was placed into a Krebs-Ringer solution containing each compound (10^-4 M) for 8 minutes.
The amount of ^86 Rb efflux from the preparation in each period was determined with a γ-counter.
The increment in efflux rate during the application of the compound was expressed as percent of the efflux before the application of the compound.

isolated rat heart = experiment: Effect on isolated rat heart (Langendorff's method); set-up: species or system male rats; settings: 1 × 10^-8 mol/min, n=3, mean ± S.D.; for Coronary Perfusate Flow: ** p < 0.01 as compared with nicorandil
Method: The effect of the compound of the present invention on heart of rats was examined by using the Langendorff's method [test compound: N-cyano-N'-(2-nitroxyethyl)-3-pyridinecarboximidamide (compound (13))]. Hearts were excised from male rats (weighing 250-350 g) and perfused at 80 cmH2 O in a Langendorff fashion. Krebs-Hensaleit bicarbonate solution (pH 7.4, 37° C.) containing an 11 mM glucose which was oxygenated with 95% O2 -5% CO2 gas mixture was used as a perfusate. The left ventricular pressure was recorded by inserting a latex balloon into the left ventricle, and heart rate was determined from the pulse of it. Coronary perfusate flow as also measured with an electromagnetic flowmeter. The experiments were carried out by perfusing a perfusate containing the compound (13) for 10 minutes after an initial equilibration period for 30 minutes. As the control compound, nicorandil which has an effect opening potassium channel and is similar to the test compound in structure was used. The changes in the coronary perfusate flow and the cardiac function (heart rate×left ventricular pressure) caused by these compounds were expressed as percent changes from the preperfusion values of the compound (13) or nicorandil.

isolated heart of rats = experiment: Effect on myocardiac injury induced by re-perfusion after ischemia (isolated rat heart); settings: mean ± SD
Method: The cardiac muscle protecting effect of the compound of the present invention was tested by using the isolated heart of rats [test compound: N-cyano-N'-(2-nitroxyethyl)- 3-pyridinecarboximidamide (compound (13))]. The Langendorff's method was used in the same manner as in the aforementioned Referential Example 1)-6. The isolated heart was perfused with a perfusate for 30 minutes and then with a perfusate containing the test compound for 10 minutes, and perfusion was stopped so that the heart was in the so-called "ischemic state". Pacing was performed during the ischemia. […] Parameters of cardiac function after the onset of re-perfusion was monitored for 30 minutes, and the heart was quickly freezed. The amount of ATP in the heart muscle was extracted with perchloric acid and determined by HPLC. Nicorandil was used as a control.
The recovery rate of the cardiac function (heart rate×left ventricular pressure) after onset of reperfusion was calculated based on the cardiac function prior to the perfusion of the compound (13) and nicorandil as 100%. The amount of ATP in the heart muscle was also determined.

potassium channel [2] = settings: in words; Trends in Pharmacological Sciences, 8, 283, 1987; cited from earlier work

SMILES	Increment of Efflux (potassium channel [1]) [%]	Coronary Perfusate Flow (isolated rat heart) [% change]	other results
N#CNC(=NCCc1ccccc1)c1cccnc1 [(27), N-cyano-N'-(2-phenylethyl)-3-pyridinecarboximidamide]	206.61		
N#CNC(=NCc1ccccc1)c1cccnc1 [(17), N-cyano-N'-benzyl-3-pyridinecarboximidamide]	135.41		
N#CNC(=NCCO[N+](=O)[O-])c1ccncc1 [(41), N-cyano-N'-(2-nitroxyethyl)-4-pyridinecarboximidamide]	126.88		
N#CNC(=NCCO[N+](=O)[O-])c1cccnc1 [Compound (13), N-cyano-N'-(2-nitroxyethyl)-3-pyridinecarboximidamide]	213.53	51.3 ± 3.2	Recovery rate of cardiac function (isolated heart of rats; 1 × 10^-7 mole/min, n=3, ** p < 0.01 vs physiological saline group): 67.5 ± 6.0%
O=C(NCCO[N+](=O)[O-])c1cccnc1 [Nicorandil]		3.3 ± 5.6	Cardiac Function (heart rate×left ventricular pressure) (isolated rat heart): 3.7 ± 6.7 percent change; Recovery rate of cardiac function (isolated heart of rats; 1 × 10^-6 mole/min, n=4): 12.7 ± 8.2%
CC1(C)Oc2ccc(C#N)cc2[C@@H](N2CCCC2=O)[C@H]1O (relative stereo) [chromakalim]			potassium channel activating effect (potassium channel [2]): potassium channel activating effect
